Results on twelve compounds are retold here after patent US12638448B2, “Compositions, methods, and kits for detection of lipolytic activity” (priority 2019, dated 2026).

Structures are written as SMILES. Several values for one entry are separate records, joined by “and”; a condition that tells them apart may be missing. Identical values can stand only once.

The conditions of data set [1]: cited from earlier work.
Data set [2] is described as follows: 4MuO auto-hydrolysis (no enzyme), 4Mu fluorescence. The format is physicochemical.
Data set [3] has as its target T1, porcine pancreatic lipase (PPL) (Sus scrofa, UniProt P00591).
T1 construct: purchased Sigma; host or cells: porcine pancreas
T1 sequence (P00591 1-450): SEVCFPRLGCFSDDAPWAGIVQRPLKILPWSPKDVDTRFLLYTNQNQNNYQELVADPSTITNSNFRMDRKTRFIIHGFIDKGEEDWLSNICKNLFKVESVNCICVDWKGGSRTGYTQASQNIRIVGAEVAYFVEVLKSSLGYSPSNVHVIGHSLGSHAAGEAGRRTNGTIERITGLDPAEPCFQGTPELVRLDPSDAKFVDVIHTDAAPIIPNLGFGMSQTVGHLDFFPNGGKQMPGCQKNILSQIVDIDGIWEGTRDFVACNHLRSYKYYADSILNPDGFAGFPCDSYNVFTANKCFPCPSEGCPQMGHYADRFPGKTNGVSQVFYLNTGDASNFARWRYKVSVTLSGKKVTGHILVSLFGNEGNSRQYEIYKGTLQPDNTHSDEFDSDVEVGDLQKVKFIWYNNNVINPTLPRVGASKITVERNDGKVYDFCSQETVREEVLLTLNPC
In words: 4MuO lipase assay with HCMB, sample containing PPL (Examples 1B-6B, 10). The format is biochemical.

Data set [4] has as its target T2, Porcine pancreas lipase (PPL) (Sus scrofa, UniProt P00591).
T2 sequence (P00591 1-450): T1 sequence (P00591 1-450)
In words: 4MuO lipase assay with porcine pancreas lipase (Examples 1A-7). As to conditions: for concentration at which product inhibition of lipase activity was observed: 800 nM PPL.

The next data set has as its system LipC12 lipase. Conditions: as solvent; cited from earlier work.
In data set [5] the test system is cell culture harvest fluid (CCHF) containing a mixture of lipases. It is filed as biochemical, CHO cell line. Conditions: negative controls, 30 min pre-incubation, 10 mg/mL mAb1, 0.02% PS80, 0.5% CCHF.
[6] abbreviates: as organic solvent of the assay.
The mark [7] stands for this setting: 10.4 mM TRIS pH 8.1, 500 nM PPL, 22 hours.

For `Cc1cc(=O)oc2cc(O)ccc12` [4Mu, 4-methylumbelliferone], the pKa entry in data set [1] was “approximately 7.7”.
Regarding `CCCCCCCC/C=C\CCCCCCCC(=O)Oc1ccc2c(C)cc(=O)oc2c1` [4MuO, 4-methylumbelliferyl oleate, reference compound], the “factor by which autohydrolysis (AH) decreased” value in data set [2] (lowering the pH from 8 to 6 (TRIS / BIS-TRIS)) is roughly 5.
Turning to `OCCN(CCO)C(CO)(CO)CO` [BIS-TRIS], the “Auto-Hydrolysis (AH)” value in data set [2] (pH 6) is 0.16 µM and 0.13 µM and 0.11 µM.
Consider `[Ca+2].[Cl-].[Cl-]` [CaCl2, calcium chloride], for which the “Auto-Hydrolysis (AH)” value is 0.15 µM in data set [2] (0.104 mM CaCl2), 0.16 µM in data set [2] (1.04 mM CaCl2) and 0.16 µM in data set [2] (10.4 mM CaCl2). Further, the “PPL activity (in words)” value in data set [3] (highest concentration tested (52 mM CaCl2 in HCMB)) is given as “slightly decreased”. Moreover, the “Enzymatic Hydrolysis (EH − AH)” value came out at 0.66 µM in data set [4] (0.104 mM CaCl2, 500 nM PPL); 0.73 µM in data set [4] (1.04 mM CaCl2, 500 nM PPL); 0.69 µM in data set [4] (10.4 mM CaCl2, 500 nM PPL). Moreover, the “Total Hydrolysis (AH + EH)” value in data set [4] (0.104 mM CaCl2, 500 nM PPL) was 0.81 µM; in data set [4] (1.04 mM CaCl2, 500 nM PPL), 0.90 µM; in data set [4] (10.4 mM CaCl2, 500 nM PPL), 0.85 µM.
`C[S+](C)[O-]` [DMSO, dimethyl sulfoxide]: the “Auto-Hydrolysis (AH)” value in data set [2] (setting [6]) came to 0.14 µM.
On the same count and under the same terms, the same measure for `CC(C)O` [IPA, isopropanol]: 0.09 µM.
As to `CCCCCCCCCCCC(=O)O` [Lauric Acid, lauric acid, reference compound], the entries for the “Auto-Hydrolysis (AH)” value in data set [2] (8.5 μM Lauric Acid (0.001% PS20 theoretically fully degraded)) and in data set [2] (850 μM Lauric Acid (0.1% PS20 theoretically fully degraded)) were 0.15 µM and 0.08 µM, respectively. The “concentration at which product inhibition of lipase activity was observed” value in data set [4] is given as “above 8.5 μM”.
As to `CO` [MeOH, methanol], the “Auto-Hydrolysis (AH)” value in data set [2] (setting [6]) amounted to 0.13 µM. Also, the “factor of increase of LipC12 lipase activity” value in the data set on LipC12 lipase is greater than 10.
For the compound `[Cl-].[Na+]` [NaCl, sodium chloride], the “Auto-Hydrolysis (AH)” value in data set [2] (40 mM NaCl) was 0.25 µM; in data set [2] (120 mM NaCl), 0.29 µM; in data set [2] (360 mM NaCl) it was 0.28 µM. For the same compound, the “PPL activity (in words)” value in data set [3] (highest concentration tested (1800 mM NaCl in HCMB)) is reported as “slightly decreased”. The “Enzymatic Hydrolysis (EH − AH)” value in data set [4] (40 mM NaCl, 500 nM PPL) worked out at 0.57 µM; in data set [4] (120 mM NaCl, 500 nM PPL), 0.62 µM; in data set [4] (360 mM NaCl, 500 nM PPL), 0.59 µM. Further, the “Total Hydrolysis (AH + EH)” value was 0.82 µM in data set [4] (40 mM NaCl, 500 nM PPL); 0.91 µM in data set [4] (120 mM NaCl, 500 nM PPL); 0.86 µM in data set [4] (360 mM NaCl, 500 nM PPL).
`CCCCCCCC/C=C\CCCCCCCC(=O)O` [Oleic Acid, oleic acid, reference compound]: the “Auto-Hydrolysis (AH)” value came out at 0.11 µM in data set [2] (7.8 μM Oleic Acid (0.001% PS80 theoretically fully degraded)) and 0.06 µM in data set [2] (780 μM Oleic Acid (0.1% PS80 theoretically fully degraded)). Moreover, the “concentration at which product inhibition of lipase activity was observed” value in data set [4] was 780 µM.
For the compound `NC(CO)(CO)CO` [TRIS], in data set [2] (10.4 mM TRIS pH 8.1, 22 hours), the “Auto-Hydrolysis (AH)” value was 0.22 µM. For the same compound, in data set [4] (setting [7]), the “Enzymatic Hydrolysis (EH − AH)” value turned out to be 1.29 µM and the “Total Hydrolysis (AH + EH)” value amounted to 1.51 µM.
In the case of `CCCCCCCCCCC[C@@H](C[C@@H]1OC(=O)[C@H]1CCCCCC)OC(=O)[C@H](CC(C)C)NC=O` [orlistat, (S)-2-formylamino-4-methyl-pentanoic acid (S)-1-[[(2S,3S)-3-hexyl-4-oxo-2-oxetanyl]methyl]-dodecyl ester, reference compound], the inhibition at 25 µM in data set [3] (25 μM, 30 min pre-incubation, 0.0335 mg/mL PPL, read-out: reduction of enzyme activity in pre-treated sample compared to co-addition of substrate and inhibitor) is roughly 50%. The “PPL activity in protein-containing formulation (in words)” value in data set [3] (negative controls, 30 min pre-incubation, 10 mg/mL mAb1, 0.02% PS80, 0.025 mg/mL PPL) is “inhibited”. The “CCHF lipase activity in protein-containing formulation (in words)” value in data set [5] is “inhibited”. The “lipolytic activity (in words)” value in data set [4] (pre-treatment (30 minutes) at 25 μM, 500 nM PPL) is on record as “completely abolished”.
